The target in assay [1] is T1, Relaxin receptor 1 (Homo sapiens, UniProt Q9HBX9).
T1 sequence (Q9HBX9 whole entry): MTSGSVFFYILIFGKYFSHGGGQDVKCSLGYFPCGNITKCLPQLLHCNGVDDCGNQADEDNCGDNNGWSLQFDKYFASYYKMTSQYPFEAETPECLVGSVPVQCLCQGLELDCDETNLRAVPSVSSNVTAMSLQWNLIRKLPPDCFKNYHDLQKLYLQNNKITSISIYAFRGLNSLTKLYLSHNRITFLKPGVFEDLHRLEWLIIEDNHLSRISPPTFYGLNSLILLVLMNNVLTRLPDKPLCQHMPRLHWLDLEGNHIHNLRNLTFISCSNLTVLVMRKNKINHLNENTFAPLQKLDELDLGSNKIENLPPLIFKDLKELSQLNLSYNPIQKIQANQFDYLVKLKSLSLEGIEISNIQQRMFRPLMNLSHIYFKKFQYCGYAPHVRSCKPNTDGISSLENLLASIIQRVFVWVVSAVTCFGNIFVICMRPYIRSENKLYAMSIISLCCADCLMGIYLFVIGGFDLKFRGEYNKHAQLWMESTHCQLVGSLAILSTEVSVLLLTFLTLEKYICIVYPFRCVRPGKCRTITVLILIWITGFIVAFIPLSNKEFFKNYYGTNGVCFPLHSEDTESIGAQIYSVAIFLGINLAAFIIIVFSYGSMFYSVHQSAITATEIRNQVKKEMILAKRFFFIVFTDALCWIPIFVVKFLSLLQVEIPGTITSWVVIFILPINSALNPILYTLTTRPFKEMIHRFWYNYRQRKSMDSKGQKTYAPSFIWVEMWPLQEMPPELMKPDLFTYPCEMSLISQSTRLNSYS
Nature of the assay: Agonist activity at RXFP1 endogenously expressed in human OVCAR-5 cells assessed as increase in IBMX-induced cAMP accumulation pretreated with IBMX for 40 mins followed by compound addition and measured after 30 mins by HTRF assay. The format is functional, cell-based.

In assay [2] the target is T2, Relaxin receptor 1 (Homo sapiens) (UniProt Q9HBX9).
T2 sequence (whole entry): T1 sequence (Q9HBX9 whole entry)
Nature of the assay: Agonist activity at RXFP1 endogenously expressed in human OVCAR-5 cells assessed as increase in IBMX-induced cAMP accumulation pretreated with IBMX for 40 mins followed by compound addition and measured after 30 mins by HTRF assay relative to relaxin. It is filed as functional, cell-based. Conditions: filed as agonist.

*1 amine or outer side, *2 acyl side, *3 side chain or, on linkers, in order; H or OH if unused. Where a SMILES comes first, the peptide text is derived from it. [ ]: non-standard residue; d: D form. β2hAla(2S) = C[C@@H](CN[*:1])C(=O)[*:2]; X4 = CCCC[C@H](O[*:1])C(=O)[*:2]; hLys = NCCCCC[C@H](N)C(=O)O

Turning to `CCCC[C@H](OC(=O)CNC(=O)[C@H](CCC(=O)O)NC(=O)[C@@H](C)CNC(=O)[C@@H](C)CNC(=O)[C@@H](NC(=O)[C@H](CCCCCNC(C)=O)NC(=O)[C@@H](C)CNC(=O)[C@@H](C)CNC(=O)[C@H](CCCCN)NC(=O)[C@H](C)NC(=O)[C@H](CCCNC(=N)N)NC(=O)[C@@H](NC(=O)[C@H](CCCCN)NC(=O)[C@H](CCC(=O)O)NC(=O)[C@H](CCCNC(=N)N)NC(=O)CNC(=O)[C@H](CCC(=O)O)NC(=O)[C@H](CC(C)C)NC(C)=O)C(C)C)[C@@H](C)CC)C(=O)N[C@@H](CO)C(=O)N[C@H](C(=O)N[C@@H](Cc1c[nH]c2ccccc12)C(=O)N[C@@H](CO)C(=O)NC[C@H](C)C(=O)N[C@@H](CCCNC(=N)N)C(=O)N[C@@H](CCCCN)C(=O)N[C@@H](CCCCN)C(N)=O)[C@@H](C)O` (Ac-LEGREKVRAK[β2hAla(2S)][β2hAla(2S)][hLys](Ac)I[β2hAla(2S)][β2hAla(2S)]EG[X4]STWS[β2hAla(2S)]RKK-NH2), the half-maximal effective concentration (EC50) in assay [1] amounted to 0.045 µM. Moreover, the Emax in assay [2] worked out at 95%.
The like results for `CC[C@H](C)[C@H](NC(=O)[C@H](CCC(N)=O)NC(=O)[C@H](C)NC(=O)[C@H](CCCNC(=N)N)NC(=O)[C@@H](NC(=O)[C@H](CCCCN)NC(=O)[C@H](CCC(=O)O)NC(=O)[C@H](CCCNC(=N)N)NC(=O)CNC(=O)[C@H](CCC(=O)O)NC(=O)[C@H](CC(C)C)NC(=O)[C@H](CCCCN)NC(=O)[C@@H](NC(=O)[C@@H](NC(=O)[C@H](CCC(=O)O)NC(=O)[C@H](CCC(=O)O)NC(C)=O)C(C)C)[C@@H](C)CC)C(C)C)C(=O)NC[C@H](C)C(=O)N[C@H](C(=O)N[C@@H](CCC(=O)O)C(=O)NCC(=O)N[C@@H](CCSC)C(=O)N[C@@H](CO)C(=O)N[C@@H](CCCCN)C(=O)N[C@@H](Cc1c[nH]c2ccccc12)C(=O)N[C@@H](CO)C(=O)N[C@@H](CCCCN)C(=O)N[C@@H](CCCNC(=N)N)C(=O)N[C@@H](CCCCN)C(=O)N[C@@H](CCCCN)C(N)=O)[C@@H](C)CC` (HELM PEPTIDE1{[ac].E.E.V.I.K.L.E.G.R.E.K.V.R.A.Q.I.[C[C@@H](CN[*:1])C(=O)[*:2]].I.E.G.M.S.K.W.S.K.R.K.K.[am]}$$$$V2.0) were, in that order, 0.045 µM and 97%.
In the case of `CC[C@H](C)[C@H](NC(=O)[C@H](CCC(N)=O)NC(=O)[C@H](C)NC(=O)[C@H](CCCNC(=N)N)NC(=O)[C@@H](NC(=O)[C@H](CC(C)C)NC(=O)[C@H](CCC(=O)O)NC(=O)[C@H](CCCNC(=N)N)NC(=O)CNC(=O)[C@H](CO)NC(=O)[C@H](CC(C)C)NC(=O)[C@H](CCCCN)NC(=O)[C@@H](NC(=O)[C@@H](NC(C)=O)C(C)C)[C@@H](C)CC)C(C)C)C(=O)NC[C@H](C)C(=O)N[C@H](C(=O)N[C@@H](CO)C(=O)NCC(=O)N[C@@H](CCSC)C(=O)N[C@@H](CO)C(=O)N[C@H](C(=O)N[C@@H](Cc1c[nH]c2ccccc12)C(=O)N[C@@H](CO)C(=O)N[C@@H](CCCCN)C(=O)N[C@@H](CCCNC(=N)N)C(=O)N[C@@H](CO)C(=O)N[C@@H](CC(C)C)C(N)=O)[C@@H](C)O)[C@@H](C)CC` (HELM PEPTIDE1{[ac].V.I.K.L.S.G.R.E.L.V.R.A.Q.I.[C[C@@H](CN[*:1])C(=O)[*:2]].I.S.G.M.S.T.W.S.K.R.S.L.[am]}$$$$V2.0), the EC50 in assay [1] was determined as 0.708 µM. The maximum response (Emax) in assay [2] stood at 78%.
The like results for `CC[C@H](C)[C@H](NC(=O)[C@H](CCC(N)=O)NC(=O)[C@H](C)NC(=O)[C@H](CCCNC(=N)N)NC(=O)[C@@H](NC(=O)[C@H](CC(C)C)NC(=O)[C@H](CCC(=O)O)NC(=O)[C@H](CCCNC(=N)N)NC(=O)CNC(=O)[C@H](CO)NC(=O)[C@H](CC(C)C)NC(=O)[C@H](CCCCN)NC(=O)[C@@H](NC(=O)[C@@H](NC(=O)[C@H](CCC(=O)O)NC(=O)[C@H](CCC(=O)O)NC(C)=O)C(C)C)[C@@H](C)CC)C(C)C)C(=O)N[C@@H](C)C(=O)NC[C@H](C)C(=O)N[C@@H](CO)C(=O)NCC(=O)N[C@@H](CCSC)C(=O)N[C@@H](CO)C(=O)N[C@H](C(=O)N[C@@H](Cc1c[nH]c2ccccc12)C(=O)N[C@@H](CO)C(=O)N[C@@H](CCCCN)C(=O)N[C@@H](CCCNC(=N)N)C(=O)N[C@@H](CCCCN)C(=O)N[C@@H](CCCCN)C(=O)O)[C@@H](C)O` (HELM PEPTIDE1{[ac].E.E.V.I.K.L.S.G.R.E.L.V.R.A.Q.I.A.[C[C@@H](CN[*:1])C(=O)[*:2]].S.G.M.S.T.W.S.K.R.K.K}$$$$V2.0) were, in that order, 0.032 µM and 95%.
As to `CC[C@H](C)[C@H](NC(=O)[C@H](CCC(N)=O)NC(=O)[C@H](C)NC(=O)[C@H](CCCNC(=N)N)NC(=O)[C@@H](NC(=O)[C@H](CC(C)C)NC(=O)[C@H](CCC(=O)O)NC(=O)[C@H](CCCNC(=N)N)NC(=O)CNC(=O)[C@H](CO)NC(=O)[C@H](CC(C)C)NC(=O)[C@H](CCCCN)NC(=O)[C@@H](NC(=O)[C@@H](NC(=O)[C@H](CCC(=O)O)NC(=O)[C@H](CCC(=O)O)NC(C)=O)C(C)C)[C@@H](C)CC)C(C)C)C(=O)NC[C@H](C)C(=O)N[C@H](C(=O)N[C@@H](CO)C(=O)NCC(=O)N[C@@H](CCSC)C(=O)N[C@@H](CO)C(=O)N[C@H](C(=O)N[C@@H](Cc1c[nH]c2ccccc12)C(=O)N[C@@H](CO)C(=O)N[C@@H](CCCCN)C(=O)N[C@@H](CCCNC(=N)N)C(=O)N[C@@H](CO)C(=O)N[C@@H](CC(C)C)C(N)=O)[C@@H](C)O)[C@@H](C)CC` (HELM PEPTIDE1{[ac].E.E.V.I.K.L.S.G.R.E.L.V.R.A.Q.I.[C[C@@H](CN[*:1])C(=O)[*:2]].I.S.G.M.S.T.W.S.K.R.S.L.[am]}$$$$V2.0), the EC50 in assay [1] was 0.498 µM. The Emax in assay [2] worked out at 86%.
For the compound Ac-EEVIKLSGRELVRAQIAISGMSTWSKRKK-NH2, in assay [1], the EC50 was 0.897 µM. The Emax in assay [2] turned out to be 92%.
Consider `CC[C@H](C)[C@H](NC(=O)[C@H](CCC(N)=O)NC(=O)[C@H](C)NC(=O)[C@H](CCCNC(=N)N)NC(=O)[C@@H](NC(=O)[C@H](CC(C)C)NC(=O)[C@H](CCC(=O)O)NC(=O)[C@H](CCCNC(=N)N)NC(=O)CNC(=O)[C@H](CO)NC(=O)[C@H](CC(C)C)NC(=O)[C@H](CCCCN)NC(=O)[C@@H](NC(=O)[C@@H](NC(C)=O)C(C)C)[C@@H](C)CC)C(C)C)C(=O)NC[C@H](C)C(=O)NC[C@H](C)C(=O)N[C@@H](CO)C(=O)NCC(=O)N[C@@H](CCSC)C(=O)N[C@@H](CO)C(=O)N[C@H](C(=O)N[C@@H](Cc1c[nH]c2ccccc12)C(=O)N[C@@H](CO)C(=O)N[C@@H](CCCCN)C(=O)N[C@@H](CCCNC(=N)N)C(=O)N[C@@H](CCCCN)C(=O)N[C@@H](CCCCN)C(N)=O)[C@@H](C)O` (HELM PEPTIDE1{[ac].V.I.K.L.S.G.R.E.L.V.R.A.Q.I.[C[C@@H](CN[*:1])C(=O)[*:2]].[C[C@@H](CN[*:1])C(=O)[*:2]].S.G.M.S.T.W.S.K.R.K.K.[am]}$$$$V2.0), for which the EC50 in assay [1] is 0.0921 µM. Moreover, in assay [2], the Emax was determined as 99%.
The like results for `CC[C@H](C)[C@H](NC(=O)[C@H](CCC(N)=O)NC(=O)[C@H](C)NC(=O)[C@H](CCCNC(=N)N)NC(=O)[C@@H](NC(=O)[C@@H](NC(=O)[C@H](CCC(=O)O)NC(=O)[C@H](CCCNC(=N)N)NC(=O)CNC(=O)[C@H](CCC(=O)O)NC(=O)[C@H](CC(C)C)NC(=O)[C@H](CCCCN)NC(=O)[C@@H](NC(=O)[C@@H](NC(C)=O)C(C)C)[C@@H](C)CC)[C@@H](C)CC)C(C)C)C(=O)NC[C@H](C)C(=O)N[C@H](C(=O)N[C@@H](CO)C(=O)NCC(=O)N[C@@H](CCSC)C(=O)N[C@@H](CO)C(=O)N[C@H](C(=O)N[C@@H](Cc1c[nH]c2ccccc12)C(=O)N[C@@H](CO)C(=O)N[C@@H](CCCCN)C(=O)N[C@@H](CCCNC(=N)N)C(=O)N[C@@H](CCCCN)C(=O)N[C@@H](CCCCN)C(N)=O)[C@@H](C)O)[C@@H](C)CC` (HELM PEPTIDE1{[ac].V.I.K.L.E.G.R.E.I.V.R.A.Q.I.[C[C@@H](CN[*:1])C(=O)[*:2]].I.S.G.M.S.T.W.S.K.R.K.K.[am]}$$$$V2.0) were, in that order, 0.146 µM and 102%.
As to `CCCC[C@H](OC(=O)CNC(=O)[C@H](CCC(=O)O)NC(=O)[C@@H](C)CNC(=O)[C@@H](NC(=O)[C@H](CCC(N)=O)NC(=O)[C@H](C)NC(=O)[C@H](CCCNC(=N)N)NC(=O)[C@@H](NC(=O)[C@H](CCCCN)NC(=O)[C@H](CCC(=O)O)NC(=O)[C@H](CCCNC(=N)N)NC(=O)CNC(=O)[C@H](CCC(=O)O)NC(=O)[C@H](CC(C)C)NC(C)=O)C(C)C)[C@@H](C)CC)C(=O)N[C@@H](CO)C(=O)N[C@H](C(=O)N[C@@H](Cc1c[nH]c2ccccc12)C(=O)N[C@@H](CO)C(=O)NC[C@H](C)C(=O)N[C@@H](CCCNC(=N)N)C(=O)N[C@@H](CCCCN)C(=O)N[C@@H](CCCCN)C(=O)N[C@@H](CCCCCNC(C)=O)C(N)=O)[C@@H](C)O` (Ac-LEGREKVRAQI[β2hAla(2S)]EG[X4]STWS[β2hAla(2S)]RKK[hLys](Ac)-NH2), the 50% effective concentration (EC50) in assay [1] came out at 0.032 µM. For the same compound, the Emax in assay [2] came to 96%.
As for Ac-VIKLSGRELVRAQIAISGMSTWSKRSL-NH2, the Emax in assay [2] was 70%.

Values taken from ChEMBL document CHEMBL4732190, “Identification of Potent and Long-Acting Single-Chain Peptide Mimetics of Human Relaxin-2 for Cardiovascular Diseases” (J Med Chem, 2021).
